Assay results published in patent US20190077795A1, “ARGININE […] INHIBITORS AND USES THEREOF” (Epizyme, Inc., priority 2014, published 2019).
Read-outs that look alike come from different tables or passages of the source.

Assays:
[1] = system: mono-methyl arginine in RKO cells; assay: RKO Methylation Assay, In Cell Western (ICW); type: cell-based; conditions: 72 hours
Excerpt: RKO adherent cells were purchased from ATCC (American Type Culture Collection), Manassas, Va., USA. DMEM/Glutamax medium, penicillin-streptomycin, heat inactivated fetal bovine serum, 0.05% trypsin and D-PBS were purchased from Life Technologies, Grand Island, N.Y., USA. Odyssey blocking buffer, 800CW goat anti-rabbit IgG (H+L) antibody, and Licor Odyssey infrared scanner were purchased from Licor Biosciences, Lincoln, Nebr., USA. Mono-methyl arginine antibody was purchased from Cell Signaling Technology, Danvers, Mass., USA. Methanol was purchased from VWR, Franklin, Mass., USA. 10% Tween 20 was purchased from KPL, Inc., Gaithersburg, Md., USA. DRAQ5 was purchased from Biostatus Limited, Leicestershire, UK.
RKO adherent cells were maintained in growth medium (DMEM/Glutamax medium supplemented with 10% v/v heat inactivated fetal bovine serum and 100 units/mL penicillin-streptomycin) and cultured at 37° C. under 5% CO2.
Cell treatment, In Cell Western (ICW) for detection of mono-methyl arginine and DNA content.
Compound (100 nL) from a 96-well source plate was added directly to 384 well cell plate. Plates were incubated at 37° C., 5% CO2 for 72 hours. After three days of incubation, plates were brought to room temperature outside of the incubator for ten minutes and blotted on paper towels to remove cell media. 50 μL of ice cold 100% methanol was added directly to each well and incubated for 30 min at room temperature. After 30 min, plates were transferred to a Biotek EL406 plate washer and washed 2 times with 100 μL per well of wash buffer (1×PBS). Next 60 μL per well of Odyssey blocking buffer (Odyssey Buffer with 0.1% Tween 20 (v/v)) were added to each plate and incubated 1 hour at room temperature. Blocking buffer was removed and 20 μL per well of primary antibody was added (mono-methyl arginine diluted 1:200 in Odyssey buffer with 0.1% Tween 20 (v/v)) and plates were incubated overnight (16 hours) at 4° C. Plates were washed 5 times with 100 μL per well of wash buffer. […] The plates were washed 5 times with 100 μL per well wash buffer then 2 times with 100 μL per well of water. Plates were allowed to dry at room temperature then imaged on the Licor Odyssey machine which measures integrated intensity at 700 nm and 800 nm wavelengths. Both 700 and 800 channels were scanned.
First, the ratio for each well was determined by:
Each plate included fourteen control wells of DMSO only treatment (minimum activation) as well as fourteen control wells for maximum activation treated with 20 μM of a reference compound. The average of the ratio values for each control type was calculated and used to determine the percent activation for each test well in the plate. Reference compound was serially diluted three-fold in DMSO for a total of nine test concentrations, beginning at 20 μM. Percent activation was determined and EC30 curves were generated using triplicate wells per concentration of compound.

human PRMT6 = biological target: T1, human PRMT6 (Homo sapiens, UniProt Q96LA8); assay: PRMT6 Biochemical Assay
T1 construct: Flag-PRMT6-His; made in house; host or cells: HEK 293F cells (BacMam baculovirus, pFastBacMam)
Excerpt: (§1) S-adenosylmethionine (SAM), S-adenosylhomocysteine (SAH), bicine, Tween20, dimethylsulfoxide (DMSO), bovine skin gelatin (BSG), sodium butyrate and Tris(2-carboxyethyl)phosphine hydrochloride solution (TCEP) were purchased from Sigma-Aldrich at the highest level of purity possible. ^3H-SAM was purchase from American Radiolabeled Chemicals with a specific activity of 80 Ci/mmol. 384-well streptavidin Flashplates were purchased from PerkinElmer.
Peptide representative of human histone H4 residues 36-50 was synthesized with an N-terminal linker-affinity tag motif and a C-terminal amide cap by 21st Century Biochemicals.
The amplified gene was subcloned into pFastBacMam (Viva Biotech).
Recombinant baculovirus were generated according to Bac-to-Bac kit instructions (Life Technologies). […] Infections were carried out at 37° C. for 48 hours, harvested by centrifugation, and stored at −80° C. for purification.
Column was washed with 20 mM imidazole in the same buffer and Flag-PRMT6-His was eluted with 150 mM imidazole. Pooled fractions were dialysed against buffer Ni-A and further purified by anti-flag M2 affinity chromatography. Flag-PRMT6-His was eluted with 200 ug/ml FLAG peptide in the same buffer. Pooled fractions were dialysed in 20 mM Tris, 150 mM NaCl, 10% glycerol and 5 mM β-mercaptoethanol, pH 7.8.
General Procedure for PRMT6 Enzyme Assays on Peptide Substrates.
(§2) The assays were all performed in a buffer consisting of 20 mM Bicine (pH=7.6), 1 mM TCEP, 0.005% BSG, and 0.002% Tween 20, prepared on the day of use. […] DMSO (1 ul) was added to Columns 11, 12, 23, 24, rows A-H for the maximum signal control and 1 ul of SAH, a known product and inhibitor of PRMT6, was added to columns 11, 12, 23, 24, rows I-P for the minimum signal control. A cocktail (40 ul) containing the PRMT6 enzyme was added by Multidrop Combi (Thermo-Fisher). The compounds were allowed to incubate with PRMT6 for 30 min at room temperature, then a cocktail (10 ul) containing SAM and peptide was added to initiate the reaction (final volume=51 ul). […] The assays were stopped by the addition of non-radiolabeled SAM (10 ul) to a final concentration of 400 uM, which dilutes the ^3H-SAM to a level where its incorporation into the peptide substrate is no longer detectable. 50 ul of the reaction in the 384-well polypropylene plate was then transferred to a 384-well Flashplate and the biotinylated peptides were allowed to bind to the streptavidin surface for at least 1 hour before being washed once with 0.1% Tween20 in a Biotek ELx405 plate washer. The plates were then read in a PerkinElmer TopCount plate reader to measure the quantity of ^3H-labeled peptide bound to the Flashplate surface, measured as disintegrations per minute (dpm) or alternatively, referred to as counts per minute (cpm).
(§3) Where dpm=disintegrations per minute, cmpd=signal in assay well, and min and max are the respective minimum and maximum signal controls.
(§4) Where top and bottom are the normally allowed to float, but may be fixed at 100 or 0 respectively in a 3-parameter fit. The Hill Coefficient normally allowed to float but may also be fixed at 1 in a 3-parameter fit. Y is the % inhibition and X is the compound concentration.

human PRMT1 = biological target: T2, human PRMT1 (Homo sapiens, UniProt Q99873); assay: PRMT1 Biochemical Assay; conditions: peptide substrate, 3H-SAM Flashplate assay
T2 construct: GST-tagged PRMT1; made in house; host or cells: High Five insect cells (baculovirus, pFastBac1)
Excerpt: as §1, with “(BSG),” for “(BSG), sodium butyrate”
Recombinant baculovirus were generated according to Bac-to-Bac kit instructions (Life Technologies). […] Infections were carried out at 27° C. for 48 hours, harvested by centrifugation, and stored at −80° C. for purification.
GST-tagged PRMT1 was eluted with 50 mM Tris, 2 mM glutathione, pH 7.8, dialysed in buffer A and concentrated to 1 mg/mL.
General Procedure for PRMT1 Enzyme Assays on Peptide Substrates.
as §2, with “PRMT1,” for “PRMT6,”, “PRMT1” for “PRMT6”, “300” for “400”
as §3, §4

human PRMT8 = human PRMT8 (Homo sapiens, UniProt Q9NR22); assay: PRMT8 Biochemical Assay; conditions: peptide substrate, 3H-SAM Flashplate assay
[2] = peptide substrate, 3H-SAM Flashplate assay, read-out: PRMT6 IC50

human PRMT8, sequence (Q9NR22 whole entry): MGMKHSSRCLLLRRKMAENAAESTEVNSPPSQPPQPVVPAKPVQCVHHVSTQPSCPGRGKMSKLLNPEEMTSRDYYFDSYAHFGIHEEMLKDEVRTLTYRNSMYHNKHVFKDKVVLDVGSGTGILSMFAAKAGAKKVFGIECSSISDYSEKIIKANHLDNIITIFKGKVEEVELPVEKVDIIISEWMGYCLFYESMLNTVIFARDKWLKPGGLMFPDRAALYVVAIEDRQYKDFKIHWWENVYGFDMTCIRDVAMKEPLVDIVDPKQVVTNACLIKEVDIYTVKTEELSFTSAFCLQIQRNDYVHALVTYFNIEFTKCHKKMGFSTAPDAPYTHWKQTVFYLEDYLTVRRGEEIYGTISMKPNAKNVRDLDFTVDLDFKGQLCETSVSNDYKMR
T2 sequence (Q99873 with tags, fused parts or gaps): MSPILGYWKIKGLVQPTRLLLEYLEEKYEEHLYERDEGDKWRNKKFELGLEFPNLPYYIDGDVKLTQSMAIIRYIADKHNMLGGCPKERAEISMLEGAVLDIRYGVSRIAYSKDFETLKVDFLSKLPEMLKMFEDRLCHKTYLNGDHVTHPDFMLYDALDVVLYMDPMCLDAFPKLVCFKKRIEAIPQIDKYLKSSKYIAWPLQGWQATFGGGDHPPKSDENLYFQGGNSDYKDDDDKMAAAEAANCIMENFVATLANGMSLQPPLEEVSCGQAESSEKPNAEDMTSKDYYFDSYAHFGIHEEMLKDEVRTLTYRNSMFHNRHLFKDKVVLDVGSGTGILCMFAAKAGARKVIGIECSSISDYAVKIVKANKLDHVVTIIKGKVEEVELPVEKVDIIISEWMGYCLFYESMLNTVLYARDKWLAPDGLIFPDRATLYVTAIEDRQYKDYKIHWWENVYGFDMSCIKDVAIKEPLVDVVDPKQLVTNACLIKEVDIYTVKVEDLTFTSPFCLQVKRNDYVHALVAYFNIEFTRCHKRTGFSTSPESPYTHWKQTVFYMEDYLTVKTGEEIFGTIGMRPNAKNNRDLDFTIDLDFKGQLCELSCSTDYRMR
T1 sequence (Q96LA8 with tags, fused parts or gaps): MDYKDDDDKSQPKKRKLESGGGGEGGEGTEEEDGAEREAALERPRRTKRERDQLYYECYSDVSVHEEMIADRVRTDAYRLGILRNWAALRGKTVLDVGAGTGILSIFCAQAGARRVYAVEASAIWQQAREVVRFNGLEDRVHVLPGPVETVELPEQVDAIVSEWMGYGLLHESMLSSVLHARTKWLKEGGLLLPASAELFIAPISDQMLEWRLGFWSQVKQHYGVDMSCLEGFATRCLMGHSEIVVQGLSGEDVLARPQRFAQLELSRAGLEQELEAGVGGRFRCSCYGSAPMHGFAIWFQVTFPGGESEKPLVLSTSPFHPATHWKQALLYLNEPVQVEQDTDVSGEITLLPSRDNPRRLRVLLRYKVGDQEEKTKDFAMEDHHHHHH

Structure (SMILES) | ICW EC30 [1] | IC50 (human PRMT1; read-out: PRMT1 IC50) | IC50 (human PRMT8; PRMT8 IC50 (uM)) | IC50 (human PRMT6; [2]) | other results
CNCCN(C)Cc1c[nH]nc1-c1cc(Cl)c(OCC(C)C)c(Cl)c1 [Compound 1] | 0.38 µM | 0.00351 µM | 0.0173 µM |  | IC50 (human PRMT6; PRMT6 IC50 (uM)): 0.0104 µM
CNCCN(C)Cc1c[nH]nc1-c1cc(Cl)c(OCC2CCC2)c(Cl)c1 [Compound 2] | 0.304 µM | 0.00361 µM | 0.0218 µM | 0.012 µM | 
CNCCN(C)Cc1c[nH]nc1-c1cc(F)c(OCC2CC2)c(C(F)(F)F)c1 [Compound 3] | 0.664 µM | 0.00398 µM | 0.0219 µM | 0.0195 µM | 
CNCCN(C)Cc1c[nH]nc1-c1cc(F)c(OCC2CCC2)c(C(F)(F)F)c1 [Compound 5] | 0.468 µM | 0.00458 µM | 0.0122 µM | 0.00685 µM | 
CNCCN(C)Cc1c[nH]nc1-c1cc(OCCCC(C)C)cc(C(F)(F)F)c1 [Compound 13] |  | 0.00531 µM | 0.0261 µM | 0.285 µM | 
CNCCN(C)Cc1c[nH]nc1-c1ccc(CC(C)C)c(C(F)(F)F)c1 [Compound 50] |  |  | 0.0245 µM | 0.0677 µM | IC50 (human PRMT1; PRMT1 IC50 (uM)): 0.0105 µM
CNCCN(C)Cc1c[nH]nc1-c1ccc(NC(C)c2cccnc2)nc1 (centres unmarked) [Compound 52] |  | 0.0107 µM | 0.026 µM | 0.0206 µM | 
CNCCN(C)Cc1c[nH]nc1-c1ccc(OCCOc2ccc(OCCC3CCOCC3)cc2)cc1 [Compound 55] |  | 0.0113 µM | 0.023 µM | 0.0186 µM | 
CNCCN(C)Cc1c[nH]nc1-c1ccc(NC(C)c2ccncc2)nc1 (centres unmarked) [Compound 67] |  | 0.0147 µM | 0.062 µM | 0.031 µM | 
CNCCN(C)Cc1c[nH]nc1-c1cc(OC(CO)CC(C)C)cc(C(F)(F)F)c1 (centres unmarked) [Compound 73] | 2.102 µM |  |  |  | IC50 (human PRMT6; read-out: PRMT6 IC50): 1.9 µM; IC50 (human PRMT8; read-out: PRMT8 IC50): 0.0438 µM
CNCCN(C)Cc1c[nH]nc1-c1cc(OC2CCCC2)cc(C(F)(F)F)c1 [Compound 76] |  | 0.0163 µM | 0.0871 µM | 0.254 µM | 
CNCCN(C)Cc1c[nH]nc1-c1ccc(OC2CC(OCCC3CCCCC3)C2)cc1 (centres unmarked) [Compound 100] |  | 0.03 µM | 0.0599 µM | 0.00465 µM | 
CNCCN(C)Cc1c[nH]nc1-c1cc(F)c(OC(CO)CO)c(C(F)(F)F)c1 [Compound 107] |  | 0.0355 µM | 0.085 µM | 0.066 µM | 
CNCCN(C)Cc1ccnn1[C@H]1CC[C@@H](COC)CC1 [Compound 110] | 1.204 µM | 0.0364 µM |  | 0.143 µM | 
CNCCN(C)Cc1c[nH]nc1-c1ccc(OCCOc2ccnnc2)cc1 [Compound 112] | 3.994 µM | 0.0373 µM |  | 0.0278 µM | 
CCN(Cc1ccncc1)c1ccc(-c2n[nH]cc2CN(C)CCNC)cn1 [Compound 113] |  | 0.0374 µM | 0.243 µM | 0.105 µM | 
COCCCOc1cc(-c2n[nH]cc2CN(C)CCN)cc(C(F)(F)F)c1Cl [Compound 115] |  | 0.0391 µM | 0.563 µM | 1.82 µM | 
CNCCN(C)Cc1c[nH]nc1-c1ccc(N(C)CC2CCOCC2)nc1 [Compound 120] | 4.389 µM | 0.0417 µM |  | 0.272 µM | 
CNCCN(C)Cc1c[nH]nc1-c1ccc(OC2CC(OCC(C)C)C2)cc1 (centres unmarked) [Compound 131] | 14.756 µM | 0.0492 µM |  | 0.0182 µM | 
CNCCN(C)Cc1cn[nH]c1-c1ccc(OC2CC(OCCC3CCOCC3)C2)cc1 (centres unmarked) [Compound 145] |  | 0.119 µM | 0.223 µM |  | IC50 (human PRMT6; PRMT6 IC50 (uM), peptide substrate, 3H-SAM Flashplate assay): 0.0101 µM
CNCCN(C)Cc1c[nH]nc1-c1ccc(OC2CC(OCCC3CCCCC3)C2)cc1 (centres unmarked) [Compound 150] | >20 µM |  |  |  | 
CNCCN(C)Cc1c[nH]nc1-c1ccc(O[C@H]2C[C@H](OCCC3CCOCC3)C2)cc1 [Compound 155, N1,N2-dimethyl-N1-((3-(4-(3-(2-(tetrahydro-2H-pyran-4-yl)ethoxy)cyclobutoxy)phenyl)-1H-pyrazol-4-yl)methyl)ethane-1,2-diamine bis(2,2,2-trifluoroacetate)] |  | 0.119 µM |  | 0.0101 µM | IC50 (human PRMT8; read-out: PRMT8 IC50): 0.223 µM
